From patent publication US20250129078A1, “ERBB2 INHIBITORS” (Cogent Biosciences, Inc., priority 2023, published 2025)

Target: EGFR WT (Homo sapiens (Human), UniProt P00533)
Assay: ErbB enzyme assay (CisBio HTRF-KinEASE-TK), EGFR WT
Type: biochemical
Conditions: ATP at Km (25 μM), 1 h incubation
Procedure: In vitro enzyme assays based on CisBio HTRF-KinEASE-TK technology were used to determine compound potencies. […]. Compounds were prepared as a three-fold serial dilution in DMSO and added to the assay to give the appropriate final concentration. After a 1 h incubation at ambient temperature, the reaction was quenched by adding 10 μL of 62.5 nM Sa-XL665 and 0.25×TK-Ab-Cryptate in HTRF detection buffer (all from CisBio, part of cat #62TKOPEC). After another 1 h incubation at ambient temperature, the extent of substrate phosphorylation was determined using a PerkinElmer EnVision multimode plate reader via time-resolved fluorescence dual wavelength detection. The percent of control (POC) was calculated using the ratio of emission at […] to the emission at 620 nm. One hundred POC was determined using DMSO only controls (no test compounds present) and zero POC was determined using pre-quenched controls reactions. A 4-parameter logistic equation was fit to the POC values as a function of the test compound concentration and the IC50 value was determined as the point where the curve crossed 50 POC.

Chain of EGFR WT (P00533 25-1210): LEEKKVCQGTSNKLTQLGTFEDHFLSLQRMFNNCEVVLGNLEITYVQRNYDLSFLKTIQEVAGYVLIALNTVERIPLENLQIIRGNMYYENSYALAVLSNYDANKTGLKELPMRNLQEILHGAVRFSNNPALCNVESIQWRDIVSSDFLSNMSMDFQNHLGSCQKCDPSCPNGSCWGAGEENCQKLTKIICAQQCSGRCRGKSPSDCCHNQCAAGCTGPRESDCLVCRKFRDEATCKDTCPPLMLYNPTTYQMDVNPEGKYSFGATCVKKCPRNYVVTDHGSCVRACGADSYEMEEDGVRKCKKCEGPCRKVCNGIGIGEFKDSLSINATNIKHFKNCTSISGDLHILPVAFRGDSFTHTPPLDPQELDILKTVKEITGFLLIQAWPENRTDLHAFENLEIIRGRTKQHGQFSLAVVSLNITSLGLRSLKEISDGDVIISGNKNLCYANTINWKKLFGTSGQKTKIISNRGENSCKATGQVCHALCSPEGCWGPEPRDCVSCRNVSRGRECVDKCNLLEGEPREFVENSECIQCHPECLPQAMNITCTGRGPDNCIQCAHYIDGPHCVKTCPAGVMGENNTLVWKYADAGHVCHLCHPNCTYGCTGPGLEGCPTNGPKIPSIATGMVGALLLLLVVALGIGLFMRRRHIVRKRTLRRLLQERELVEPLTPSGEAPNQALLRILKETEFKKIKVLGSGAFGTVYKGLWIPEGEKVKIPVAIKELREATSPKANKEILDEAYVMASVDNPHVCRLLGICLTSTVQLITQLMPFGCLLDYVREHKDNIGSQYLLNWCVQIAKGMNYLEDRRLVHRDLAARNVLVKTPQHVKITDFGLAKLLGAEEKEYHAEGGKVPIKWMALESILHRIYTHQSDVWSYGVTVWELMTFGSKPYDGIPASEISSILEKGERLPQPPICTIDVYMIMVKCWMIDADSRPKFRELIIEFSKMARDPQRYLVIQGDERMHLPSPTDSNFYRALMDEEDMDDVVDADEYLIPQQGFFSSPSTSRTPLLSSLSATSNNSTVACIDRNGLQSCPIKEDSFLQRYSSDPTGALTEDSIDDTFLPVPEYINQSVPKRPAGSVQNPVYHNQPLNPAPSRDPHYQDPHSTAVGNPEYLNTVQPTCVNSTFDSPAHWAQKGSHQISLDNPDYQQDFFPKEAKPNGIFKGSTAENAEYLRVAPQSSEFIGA

`C=C(F)C(=O)N1C2CCC1CN(c1ncc3ncnc(Nc4ccc(Oc5ccc6c(c5)nnn6C)c(C)c4)c3n1)C2` [Compound 51, 2-fluoro-1-(3-(8-((3-methyl-4-((1-methyl-1H-benzo[d][1,2,3]triazol-5-yl)oxy)phenyl)amino)pyrimido [5,4-d]pyrimidin-2-yl)-3,8-diazabicyclo [3.2.1]octan-8-yl)prop-2-en-1-one 2,2,2-trifluoroacetate] and `C=C(F)C(=O)N1C2CCC1CN(c1ccc3ncnc(Nc4ccc(Oc5ccc6c(c5)nnn6C)c(C)c4)c3n1)C2` [Compound 87, 2-fluoro-1-(3-(4-((3-methyl-4-((1-methyl-1H-benzo[d][1,2,3]triazol-5-yl)oxy)phenyl)amino)pyrido[3,2-d]pyrimidin-6-yl)-3,8-diazabicyclo[3.2.1]octan-8-yl)prop-2-en-1-one] cannot be ordered by IC50: no less than 1 µM for the first, 0.5 to 1 µM for the second.

First: C=C(COC)C(=O)N1CCN(c2ncc3ncnc(Nc4ccc(Oc5ccc6c(c5)nnn6C)c(C)c4)c3n2)CC1 [Compound 54, 2-(methoxymethyl)-1-(4-(8-((3-methyl-4-((1-methyl-1H-benzo[d][1,2,3]triazol-5-yl)oxy)phenyl)amino)pyrimido [5,4-d]pyrimidin-2-yl)piperazin-1-yl) prop-2-en-1-one]
Second: C=CC(=O)N1CCN(c2ccc3ncnc(Nc4ccc(Oc5ccc6c(c5)nnn6C)c(C)c4)c3n2)CC1 [Compound 92, 1-(4-(4-((3-methyl-4-((1-methyl-1H-benzo[d][1,2,3]triazol-5-yl)oxy)phenyl)amino)pyrido[3,2-d]pyrimidin-6-yl)piperazin-1-yl)prop-2-en-1-one]
The IC50 of the first is higher: no less than 1 µM for the first, 0.05 to 0.1 µM for the second.

`C=CC(=O)N1CC2CCC1CN2c1ncc2ncnc(Nc3ccc(Oc4ccc5c(c4)nnn5C)c(C)c3)c2n1` (stereo not drawn) [Compound 62, 1-(5-(8-((3-methyl-4-((1-methyl-1H-benzo[d][1,2,3]triazol-5-yl)oxy)phenyl)amino)pyrimido[5,4-d]pyrimidin-2-yl)-2,5-diazabicyclo[2.2.2]octan-2-yl)prop-2-en-1-one] and `C=CC(=O)N1CC2CCC1CN2c1ccc2ncnc(Nc3ccc(Oc4ccc5c(c4)nnn5C)c(C)c3)c2n1` (stereo not drawn) [Compound 82, 1-(5-(4-((3-methyl-4-((1-methyl-1H-benzo[d][1,2,3]triazol-5-yl)oxy)phenyl)amino)pyrido[3,2-d]pyrimidin-6-yl)-2,5-diazabicyclo[2.2.2]octan-2-yl)prop-2-en-1-one] cannot be ordered by IC50: less than 0.05 µM for the first, less than 0.05 µM for the second.

Compared with `C=CC(=O)N(C)C1C2CN(c3ncc4ncnc(Nc5ccc(Oc6cc(F)c7c(c6)nnn7C)c(C)c5F)c4n3)CC21` (stereo not drawn) [Compound 68, N-(3-(8-((2-fluoro-4-((7-fluoro-1-methyl-1H-benzo[d][1,2,3]triazol-5-yl)oxy)-3-methylphenyl)amino)pyrimido[5,4-d]pyrimidin-2-yl)-3-azabicyclo[3.1.0]hexan-6-yl)-N-methylacrylamide], `C=CC(=O)N1CC(N(C)c2ncc3ncnc(Nc4ccc(Oc5ccc6c(c5)nnn6C)c(C)c4F)c3n2)C1` [Compound 69, 1-(3-((8-((2-fluoro-3-methyl-4-((1-methyl-1H-benzo[d][1,2,3]triazol-5-yl)oxy)phenyl)amino)pyrimido[5,4-d]pyrimidin-2-yl)(methyl)amino)azetidin-1-yl)prop-2-en-1-one] is lower in IC50: 0.05 to 0.1 µM for the first, less than 0.05 µM for the second. The second is the more potent here.

`C=CC(=O)N1CC2CCC(C1)N2c1ccc2ncnc(Nc3ccc(Oc4ccc5c(c4)nnn5C)c(C)c3)c2n1` [Compound 71, 1-(8-(4-((3-methyl-4-((1-methyl-1H-benzo[d][1,2,3]triazol-5-yl)oxy)phenyl)amino)pyrido[3,2-d]pyrimidin-6-yl)-3,8-diazabicyclo[3.2.1]octan-3-yl)prop-2-en-1-one] and `C=CC(=O)N1CC2CC1CN2c1ccc2ncnc(Nc3ccc(Oc4ccc5c(c4)nnn5C)c(C)c3)c2n1` (stereo not drawn) [Compound 81, 1-(5-(4-((3-methyl-4-((1-methyl-1H-benzo[d][1,2,3]triazol-5-yl)oxy)phenyl)amino)pyrido[3,2-d]pyrimidin-6-yl)-2,5-diazabicyclo[2.2.1]heptan-2-yl)prop-2-en-1-one] cannot be ordered by IC50: less than 0.05 µM for the first, less than 0.05 µM for the second.

`C=CC(=O)N1CCN(c2ccc3ncnc(Nc4ccc(Oc5ccc6c(c5)nnn6C)c(C)c4)c3n2)C[C@@H]1C` [Compound 72, (S)-1-(2-methyl-4-(4-((3-methyl-4-((1-methyl-1H-benzo[d][1,2,3]triazol-5-yl)oxy)phenyl)amino)pyrido[3,2-d]pyrimidin-6-yl)piperazin-1-yl)prop-2-en-1-one] and `C=CC(=O)N1CCN(c2ccc3ncnc(Nc4ccc(Oc5ccc6c(c5)nnn6C)c(C)c4)c3n2)C[C@H]1C` [Compound 73, (R)-1-(2-methyl-4-(4-((3-methyl-4-((1-methyl-1H-benzo[d][1,2,3]triazol-5-yl)oxy)phenyl)amino)pyrido[3,2-d]pyrimidin-6-yl)piperazin-1-yl)prop-2-en-1-one] fall in the same range of IC50: 0.1 to 0.5 µM for the first, 0.1 to 0.5 µM for the second.

First: C=CC(=O)N1CCN(c2ccc3ncnc(Nc4ccc(Oc5ccc6c(c5)nnn6C)c(C)c4)c3n2)CC12CC2 [Compound 74, 1-(7-(4-((3-methyl-4-((1-methyl-1H-benzo[d][1,2,3]triazol-5-yl)oxy)phenyl)amino)pyrido[3,2-d]pyrimidin-6-yl)-4,7-diazaspiro[2.5]octan-4-yl)prop-2-en-1-one]
Second: C=CC(=O)N1CCN(c2ccc3ncnc(Nc4ccc(Oc5ccc6c(c5)nnn6C)c(C)c4)c3n2)CC1(C)C [Compound 89, 1-(2,2-dimethyl-4-(4-((3-methyl-4-((1-methyl-1H-benzo[d][1,2,3]triazol-5-yl)oxy)phenyl)amino)pyrido[3,2-d]pyrimidin-6-yl)piperazin-1-yl)prop-2-en-1-one]
The IC50 of the first is lower: less than 0.05 µM for the first, 0.05 to 0.1 µM for the second.

`C=CC(=O)N1CCN(c2ccc3ncnc(Nc4ccc(Oc5ccc6c(c5)nnn6C)c(C)c4)c3n2)C2CC21` (stereo not drawn) [Compound 75, 1-(5-(4-((3-methyl-4-((1-methyl-1H-benzo[d][1,2,3]triazol-5-yl)oxy)phenyl)amino)pyrido[3,2-d]pyrimidin-6-yl)-2,5-diazabicyclo[4.1.0]heptan-2-yl)prop-2-en-1-one] and `C=CC(=O)N1CCN(c2ccc3ncnc(Nc4ccc(Oc5ccc6c(c5)nnn6C)c(C)c4)c3n2)C[C@H]1COC` [Compound 77, (S)-1-(2-(methoxymethyl)-4-(4-((3-methyl-4-((1-methyl-1H-benzo[d][1,2,3]triazol-5-yl)oxy)phenyl)amino)pyrido[3,2-d]pyrimidin-6-yl)piperazin-1-yl)prop-2-en-1-one] cannot be ordered by IC50: less than 0.05 µM for the first, less than 0.05 µM for the second.

First: C=CC(=O)N1CCN(c2ccc3ncnc(Nc4ccc(Oc5ccc6c(c5)nnn6C)c(C)c4)c3n2)C[C@@H]1COC [Compound 78, (R)-1-(2-(methoxymethyl)-4-(4-((3-methyl-4-((1-methyl-1H-benzo[d][1,2,3]triazol-5-yl)oxy)phenyl)amino)pyrido[3,2-d]pyrimidin-6-yl)piperazin-1-yl)prop-2-en-1-one]
Second: C=CC(=O)N1CCN(c2ccc3ncnc(Nc4ccc(Oc5ccc6c(c5)nnn6C)c(C)c4)c3n2)C[C@@H]1CC#N [Compound 83, (S)-2-(1-acryloyl-4-(4-((3-methyl-4-((1-methyl-1H-benzo[d][1,2,3]triazol-5-yl)oxy)phenyl)amino)pyrido[3,2-d]pyrimidin-6-yl)piperazin-2-yl)acetonitrile]
The IC50 of the first is higher: 0.1 to 0.5 µM for the first, less than 0.05 µM for the second. The second is the more potent here.

First: C=CC(=O)N1CCN(c2ccc3ncnc(Nc4cc(C)c(Oc5ccc6c(c5)nnn6C)cc4OC)c3n2)CC1 [Compound 79, 1-(4-(4-((2-methoxy-5-methyl-4-((1-methyl-1H-benzo[d][1,2,3]triazol-5-yl)oxy)phenyl)amino)pyrido[3,2-d]pyrimidin-6-yl)piperazin-1-yl)prop-2-en-1-one]
Second: C=CC(=O)N1CCN(c2ccc3ncnc(Nc4ccc(Oc5cc(F)c6c(c5)nnn6C)c(C)c4)c3n2)CC1 [Compound 97, 1-(4-(4-((4-((7-fluoro-1-methyl-1H-benzo[d][1,2,3]triazol-5-yl)oxy)-3-methylphenyl)amino)pyrido[3,2-d]pyrimidin-6-yl)piperazin-1-yl)prop-2-en-1-one]
The IC50 of the first is higher: 0.1 to 0.5 µM for the first, less than 0.05 µM for the second. The second is the more potent here.

First: C=CC(=O)N1CCN(c2ccc3ncnc(Nc4ccc(Oc5ccc6c(c5)nnn6C)c(C)c4)c3n2)C[C@H]1CC#N [Compound 84, (R)-2-(1-acryloyl-4-(4-((3-methyl-4-((1-methyl-H-benzo[d][1,2,3]triazol-5-yl)oxy)phenyl)amino)pyrido[3,2-d]pyrimidin-6-yl)piperazin-2-yl)acetonitrile]
Second: C=C(F)C(=O)N1CCN(c2ccc3ncnc(Nc4ccc(Oc5ccc6c(c5)nnn6C)c(C)c4)c3n2)C[C@@H]1CC#N [Compound 85, (S)-2-(1-(2-fluoroacryloyl)-4-(4-((3-methyl-4-((1-methyl-1H-benzo[d][1,2,3]triazol-5-yl)oxy)phenyl)amino)pyrido[3,2-d]pyrimidin-6-yl)piperazin-2-yl)acetonitrile]
The IC50 of the first is lower: less than 0.05 µM for the first, 0.5 to 1 µM for the second.

`C=C(F)C(=O)N1CCN(c2ccc3ncnc(Nc4ccc(Oc5ccc6c(c5)nnn6C)c(C)c4)c3n2)C[C@H]1CC#N` [Compound 86, (R)-2-(1-(2-fluoroacryloyl)-4-(4-((3-methyl-4-((1-methyl-1H-benzo[d][1,2,3]triazol-5-yl)oxy)phenyl)amino)pyrido[3,2-d]pyrimidin-6-yl)piperazin-2-yl)acetonitrile] and `C=C(F)C(=O)N1CC2CCC1CN2c1ccc2ncnc(Nc3ccc(Oc4ccc5c(c4)nnn5C)c(C)c3)c2n1` (stereo not drawn) [Compound 88, 2-fluoro-1-(5-(4-((3-methyl-4-((1-methyl-1H-benzo[d][1,2,3]triazol-5-yl)oxy)phenyl)amino)pyrido[3,2-d]pyrimidin-6-yl)-2,5-diazabicyclo[2.2.2]octan-2-yl)prop-2-en-1-one] cannot be ordered by IC50: no less than 1 µM for the first, no less than 1 µM for the second.
